Series [1] can be described thus: Pharmacokinetics after single oral (gavage) administration in rats. The note with it: different doses (up to 150 mg/kg).
Method: The objective of this study was to investigate the pharmacokinetic (PK) profile of ADEF after a single oral (gavage) administration to rats at the following doses: • Low dose: 25 and 50 mg/kg of ADEF; • Mid dose: 100 mg/kg of ADEF; • High dose: 150 mg/kg of ADEF.
For comparative study, native artesunate was also included in this study, but only at a high dose of 150 mg/kg.
After a 1-week acclimation period, ADEF was administered orally to rats, and blood samples were collected at various time intervals (5, 10, 15, 30, 45, and 60 min) using K2EDTA tubes as anticoagulants. The collected tubes were then placed on wet ice. Subsequently, the samples were centrifuged at 1000× g for 10 min at 4 °C. The resulting plasma was recovered and stored frozen at temperatures below or equal to −60 °C for further analysis.
Non-compartmental analysis of the test item and its metabolite concentrations in plasma was performed by using the Phoenix® WinNonlin®6 6.4 software.
On the set-up of series [2]: method as in PMID 17694524. The note with it: cited from earlier work.
The nature of another series: in vivo. Particulars: male, Sprague-Dawley, rat, plasma, po, 150 mg/kg.
Details of series [3]: method as in earlier work. The note with it: artesunate in acidic form; cited from earlier work.
Series [4] is described as follows: Solubility in simulated gastric fluid (SGF, pH 1.5). Particulars: 0.5 g in 10 mL SGF pH 1.5, 36.5 °C, 30 min stirring. It is filed as physicochemical. On the procedure:
An amount of 0.5 g of native artesunate and ADEF was dispersed in 10 mL of simulated gastric fluid (SGF, pH 1.5). All solutions were incubated at 36.5 °C under mild shaking (100 rev/min) in a G24 Environmental Incubator Shaker (New Brunswick Scientific Co., Edison, NJ, USA) for 30 min.

The subject of a further series is Helicobacter pylori. Description: Agar disk diffusion assay. It is filed as cell-based. The note with it: paper disks, ~20 mg/mL. On the procedure: Practically, impregnated paper disks with a determined concentration (~20 mg/mL) of ADEF were deposited on the surface of a standardized culture medium previously inoculated with a calibrated inoculum of a pure culture of H. pylori. After incubation, the Petri dishes were examined, and the diameters of the zones of inhibition surrounding the disks were measured. The obtained values were thereafter compared to the critical values of the different antimicrobial standards to determine the clinical categorization (resistant, intermediate, sensitive).
A general note: A growth-free zone around the sample is the usual read-out of agar diffusion tests.

The next series has as its system H. pylori PremSS1. Nature of the series: In vivo efficacy against H. pylori in infected mice (bacterial culture and qPCR of stomach). The note with it: oral, single dose per day for 14 days; ADEF 40 mg/kg, amox 30 mg/kg, PPI 150 mg/kg; bacterial culture and qPCR (Figure 8A,B). Also on record: species or system C57BL/6 mice. From the text: Animals: A mouse model of H.-pylori-induced disease using pre-murine Sydney strain-1 (PremSS1) in mice C57BL/6 was extensively used in Helicobacter research. The persistence of mouse colonization, distribution, and long-lasting infection is attributable to the strain’s capabilities. For these reasons mice C57BL/6 were selected in this study. In fact, male mice with «specific pathogen-free» status (CHU of Bordeaux, Amélie Raba-Léon place, Bordeaux Cedex) at 6 weeks of age were housed in an acclimatization room for 1 week before experimentation.
Mouse gavage with H. pylori: Mice were fasted the day before the gavage days. They were force-fed with approximately 10^8 H. pylori PremSS1 in 100 µL of phosphate-buffered saline in the morning and then placed in a cage for the rest of the day under normal conditions. The gavages were carried out on three consecutive days. A bacteria viability test was accomplished post-gavage by platting a bacterial pellet on «Poly-house-made» agar for 24 h. […]
Each quarter of the mouse stomach was placed in a tube that was RNASE and DNASE free, containing 200 μL of physiological water. […] The remaining 90 µL were extracted for H. pylori quantification using qPCR. […] All samples were prepared in duplicate, and the results were expressed as cfu/mg of stomach tissue. […]
(Real-time PCR tracks product formation cycle by cycle.)

With `C[C@H]1[C@H](OC(=O)CCC(=O)O)O[C@@H]2O[C@@]3(C)CC[C@H]4[C@H](C)CC[C@@H]1[C@@]24OO3` [Native Artesunate, artesunate], the “Mortality or abnormal signs” value in series [1] is “no mortality or abnormal signs”. The “Stability in aqueous, acidic and basic media” value in series [2] was “unstable”. Also, in “in vivo”, the AUC(0-t) – broadly, exposure summed from dosing to a finite time, without extrapolation to infinity – is 211 ng·h/mL; the peak concentration (Cmax) (commonly the peak of the concentration-time curve) came to 701 ng/mL; the Tmax (in general, the time at which the peak concentration occurs) is 15 min; the half-life (usually the time needed for the level to fall by half in the phase considered) amounted to 18 min. In addition, in series [3], the Water solubility result is recorded as “about 0.68 % (w/w)”. The “Solubility in simulated gastric fluid” value in series [4] is on record as “did not dissolve”. For the same compound, the Inhibition zone result in the series on Helicobacter pylori is recorded as “two distinct zones were observed”.
Regarding `COc1ccnc(C[S+]([O-])c2nc3ccc(OC(F)F)cc3[nH]2)c1OC` (centres unmarked) [PPI, pantoprazole], the “Effect against H. pylori in infected mice” value in the series with H. pylori PremSS1 was “did not exhibit a significant effect”.
Same read-out and setting: as for `CC1(C)S[C@@H]2[C@H](NC(=O)[C@H](N)c3ccc(O)cc3)C(=O)N2[C@H]1C(=O)O` [amox, amoxicillin], the entry is “did not exhibit a significant effect”.

These data come from paper PMC10342150, “Artesunate Dry Emulsion Formulation Combined with Antibiotics for Treatment of Helicobacter pylori Infections: In Vitro/In Vivo Evaluation” (International Journal of Molecular Sciences, 2023).
